In patent US7253146B2, “Template-fixed peptidomimetics with antimicrobial activity” (Polyphor Ltd, priority 2001, dated 2007):
Converted amounts (≈) assume the structure as drawn. Like-named read-outs stand apart in the source and are kept apart here. *1 amine or outer side, *2 acyl side, *3 side chain or, on linkers, in order; H or OH if unused. Where a SMILES comes first, the peptide text is derived from it. [ ]: non-standard residue; d: D form. The star is where a group is joined. X1 = CCCCCCC(=O)N[C@H]1C[C@@H](C(=O)[*:2])N([*:1])C1; Phenylacetyl(4-Ph) = O=C(Cc1ccc(-c2ccccc2)cc1)*; X4 = O=C([C@@H]1C[C@H](N[*:3])CN1[*:1])[*:2]; Diphenylacetyl = O=C(C(c1ccccc1)c1ccccc1)*; Bip = N[C@@H](Cc1ccc(-c2ccccc2)cc1)C(=O)O; Orn = NCCC[C@H](N)C(=O)O; Bn = c1ccc(C*)cc1

Legend:
Candida albicans [1] = tested on: Candida albicans
Method: (§1) Lyophilized peptides were weighed on a Microbalance (Mettler MT5) and dissolved in sterile water containing 0.01% acetic acid Tachyplesin was purchased from Bachem Ltd. (Bubendorf Switzerland).
(§2) The antimicrobial activities of the peptides were determined by the standard NCCLS broth microdilution method (see ref 1, below) examined in sterile 96-wells plates (Nunclon polystyrene microtiter plates) in a total volume of 100 μl. […] 10^6 colony forming units (CFU)/ml for bacteria or 5×10^3 CFU/ml for Candida. Aliquots (50 μl) of the innocula were added to 50 μl of MH broth containing the peptide in serial twofold dilutions. The microorganisms used were Escherichia coli (ATCC 25922), Pseudomnonas aeruginosa (P. aeruginosa) (ATCC 27853), Stahylococcus aureus (ATCC 29213 and ATCC 25923) and Candida albicans. A selected number of peptides were screened for activity against a larger panel of gram-negative strains. These strains were; Escherichia coli ATCC 43827 and clinical isolates of Pseudomonas (P. aeruginosa V07 14482, P. aeruginosa 15288, P. aeruginosa V02 15328 and P. aeruginosa V09 16085) and Acinetobacter (Acinetobacter V04 19905/1, Acinetobacter V12 21143/1 and Acinetobacter V12 21193/1).

[2] = tested on: Escherichia coli (ATCC 25922)
Method: as §1, §2

[3] = tested on: Staphylococcus aureus ATCC 25923
Method: as §1, §2

[4] = tested on: Staphylococcus aureus ATCC 29213
Method: as §1, §2

[5] = tested on: human red blood cells (hRBC); experiment: Hemolysis of human red blood cells at 100 μg/ml peptide; conditions: 100 μg/ml of peptide, 20% v/v hRBC, 1 hour at 37° C.
Method: Hemolysis of red blood cells is often employed for assessment of toxicity of related compounds such as protegrin or tachyplesin. Values are given as %-lysis of red blood cells observed at a concentration of 100 μg/ml.
The peptides were tested for their hemolytic activity against human red blood cells (hRBC). Fresh hRBC were washed three times with phosphate buffered saline (PBS) by centrifugation for 10 min at 2000×g. Peptides at a concentration of 100 μg/ml were incubated with 20% v/v hRBC for 1 hour at 37° C. The final erythrocyte concentration was appr. 0.9×10^9/ml. A value of 0% resp. 100% cell lysis was determined by incubation of the hRBC in the presence of PBS alone and resp. 0.1% Triton X-100 in H2O. The samples were centrifuged and the supernatant was 20 fold diluted in PBS buffer and the optical density (OD) of the sample at […] was measured. […] Percent hemolysis was calculated as follows: (OD540peptide/OD540H2O)×100%.

[6] = tested on: gram-positive and gram-negative bacteria; conditions: background statement; cited from earlier work
human red blood cells = conditions: cited from earlier work
Candida albicans [7] = tested on: Candida albicans; remark: listed apart in the source
Method: as §2
(§3) Salt sensitivity of the peptides was tested by the microtiter serial dilution assay as described above. Only MH broth was replaced by MH broth containing 1% NaCl.

[8] = tested on: Escherichia coli ATCC 25922
Method: as §2, §3

[9] = tested on: Pseudomonas putida ATCC 27853
Method: as §2, §3

[10] = tested on: Staphylococcus aureus ATCC 25923; remark: listed apart in the source
Method: as §2, §3

[11] = tested on: Staphylococcus aureus ATCC 29213; remark: listed apart in the source
Method: as §2, §3

Molecule	MIC Candida albicans (Candida albicans [1]) [µg/mL]	MIC Escherichia coli ATCC 25922 ([2]; ATCC 25922) [µg/mL]	MIC Staphylococcus aureus ATCC 25923 ([3]; ATCC 25923) [µg/mL]	MIC Staphylococcus aureus ATCC 29213 ([4]; ATCC 29213) [µg/mL]	MIC Candida albicans (Candida albicans [1]; Table 8, Mueller-Hinton broth) [µg/mL]	MIC Escherichia coli ATCC 25922 ([2]; Table 8, Mueller-Hinton broth) [µg/mL]	MIC Staphylococcus aureus ATCC 25923 ([3]; Table 8, Mueller-Hinton broth) [µg/mL]	MIC Staphylococcus aureus ATCC 29213 ([4]; Table 8, Mueller-Hinton broth) [µg/mL]	Hemolyses hRBC (percentage hemolyses) [5] [%]	other results
CC(C)C[C@@H]1NC(=O)[C@H](Cc2c[nH]c3ccccc23)NC(=O)[C@H](CC(C)C)NC(=O)[C@@H]2CCCN2C(=O)[C@H]2CCCN2C(=O)[C@H](C(C)C)NC(=O)[C@H](CCCNC(=N)N)NC(=O)[C@H](Cc2ccc(O)cc2)NC(=O)[C@H](CCCNC(=N)N)NC(=O)[C@H](Cc2ccc(-c3ccccc3)cc2)NC(=O)[C@H](CCCNC(=N)N)NC(=O)[C@H](CCCNC(=N)N)NC(=O)[C@H](CCCCN)NC(=O)[C@H](CCCCN)NC1=O [Example 232] (cyclo(LWLKKRR[Bip]RYRV[dP]P))					9.4 (≈ 4.76 µM)	6.2 (≈ 3.14 µM)	6.2 (≈ 3.14 µM)	9.4 (≈ 4.76 µM)	1.5	
Gramicidin S										antimicrobial activity [6]: potent antimicrobial activity; hemolytic activity (human red blood cells; background statement): high hemolytic activity
CC(C)C[C@H](NC(=O)[C@H](CCCNC(=N)N)NC(=O)CNC(=O)CNC(=O)[C@@H](N)CCCNC(=N)N)C(=O)N[C@H]1CSSC[C@@H](C(=O)N[C@H](C(=O)NCC(=O)N[C@@H](CCCNC(=N)N)C(N)=O)C(C)C)NC(=O)[C@H](C(C)C)NC(=O)[C@@H]2CSSC[C@H](NC(=O)[C@H](Cc3ccc(O)cc3)NC1=O)C(=O)N[C@@H](CCCNC(=N)N)C(=O)N[C@@H](CCCNC(=N)N)C(=O)N[C@@H](CCCNC(=N)N)C(=O)N[C@@H](Cc1ccccc1)C(=O)N2 [protegrin]										antimicrobial activity [6]: potent and similar activity; hemolytic activity (human red blood cells): high hemolytic activity
CC(C)C[C@@H]1NC(=O)[C@H](CCCNC(=N)N)NC(=O)[C@H](CC(C)C)NC(=O)[C@@H]2C[C@H](NC(=O)C(c3ccccc3)c3ccccc3)CN2C(=O)[C@H]2CCCN2C(=O)[C@H](C(C)C)NC(=O)[C@H](CCCNC(=N)N)NC(=O)[C@H](Cc2ccc(O)cc2)NC(=O)[C@H](CCCCN)NC(=O)[C@H](Cc2c[nH]c3ccccc23)NC(=O)[C@H](CCCNC(=N)N)NC(=O)[C@H](CCCNC(=N)N)NC(=O)[C@H](CCCCN)NC(=O)[C@H](CCCCN)NC1=O [Example 259] (cyclo(KKRRWKYRV[dP][X4](Diphenylacetyl)LRL))					12.5 (≈ 5.99 µM)	6.2 (≈ 2.97 µM)	6.2 (≈ 2.97 µM)	6.2 (≈ 2.97 µM)	18.0	
CC(C)C[C@@H]1NC(=O)[C@H](CCCNC(=N)N)NC(=O)[C@H](CC(C)C)NC(=O)[C@@H]2C[C@H](NC(=O)Cc3ccc(-c4ccccc4)cc3)CN2C(=O)[C@H]2CCCN2C(=O)[C@H](C(C)C)NC(=O)[C@H](CCCNC(=N)N)NC(=O)[C@H](Cc2ccc(O)cc2)NC(=O)[C@H](CCCCN)NC(=O)[C@H](Cc2c[nH]c3ccccc23)NC(=O)[C@H](CCCNC(=N)N)NC(=O)[C@H](CCCNC(=N)N)NC(=O)[C@H](CCCCN)NC(=O)[C@H](CCCCN)NC1=O [Example 258] (cyclo(KKRRWKYRV[dP][X4](Phenylacetyl(4-Ph))LRL))					12.5 (≈ 5.99 µM)	6.2 (≈ 2.97 µM)	6.2 (≈ 2.97 µM)	6.2 (≈ 2.97 µM)	23.6	
CC(C)C[C@@H]1NC(=O)[C@H](Cc2ccccc2)NC(=O)[C@H](CC(C)C)NC(=O)[C@H](CCCNC(=N)N)NC(=O)[C@@H]2CCCN2C(=O)[C@H]2CCCN2C(=O)[C@H](CC(C)C)NC(=O)[C@H](CCCNC(=N)N)NC(=O)[C@H](Cc2ccccc2)NC(=O)[C@H](Cc2ccccc2)NC(=O)[C@H](CCCNC(=N)N)NC(=O)[C@H](CCCNC(=N)N)NC(=O)[C@H](CCCNC(=N)N)NC1=O [Example 59] (cyclo(RLFLRRRFFRL[dP]P))	25 (≈ 14.2 µM)	4.7 (≈ 2.68 µM)	50 (≈ 28.5 µM)	25 (≈ 14.2 µM)						

Further lines, with some results ahead:

MIC Candida albicans (Candida albicans [1]) [µg/mL]	MIC Escherichia coli ATCC 25922 ([2]; ATCC 25922) [µg/mL]	MIC Staphylococcus aureus ATCC 25923 ([3]; ATCC 25923) [µg/mL]	MIC Staphylococcus aureus ATCC 29213 ([4]; ATCC 29213) [µg/mL]	Molecule	MIC Candida albicans (Candida albicans [1]; Table 8, Mueller-Hinton broth) [µg/mL]	MIC Escherichia coli ATCC 25922 ([2]; Table 8, Mueller-Hinton broth) [µg/mL]	MIC Staphylococcus aureus ATCC 25923 ([3]; Table 8, Mueller-Hinton broth) [µg/mL]	MIC Staphylococcus aureus ATCC 29213 ([4]; Table 8, Mueller-Hinton broth) [µg/mL]	Hemolyses hRBC (percentage hemolyses) [5] [%]	other results
6.2 (≈ 3.25 µM)	6.2 (≈ 3.25 µM)	12.5 (≈ 6.56 µM)	12.5 (≈ 6.56 µM)	CC(C)C[C@@H]1NC(=O)[C@H](CCCNC(=N)N)NC(=O)[C@H](CC(C)C)NC(=O)[C@@H]2CCCN2C(=O)[C@H]2CCCN2C(=O)[C@H](C(C)C)NC(=O)[C@H](CCCNC(=N)N)NC(=O)[C@H]([C@@H](C)OCc2ccccc2)NC(=O)[C@H](CCCCN)NC(=O)[C@H](Cc2c[nH]c3ccccc23)NC(=O)[C@H](CCCNC(=N)N)NC(=O)[C@H](CCCNC(=N)N)NC(=O)[C@H](CCCCN)NC(=O)[C@H](CCCCN)NC1=O [Example 206] (cyclo(LRLKKRRWKT(Bn)RV[dP]P))						
6.2 (≈ 3.09 µM)	3.1 (≈ 1.55 µM)	6.2 (≈ 3.09 µM)	6.2 (≈ 3.09 µM)	CCCCCCC(=O)N[C@H]1C[C@H]2C(=O)N[C@@H](CC(C)C)C(=O)N[C@@H](CCCNC(=N)N)C(=O)N[C@@H](CC(C)C)C(=O)N[C@@H](CCCCN)C(=O)N[C@@H](CCCCN)C(=O)N[C@@H](CCCNC(=N)N)C(=O)N[C@@H](CCCNC(=N)N)C(=O)N[C@@H](Cc3c[nH]c4ccccc34)C(=O)N[C@@H](CCCCN)C(=O)N[C@@H](Cc3ccc(O)cc3)C(=O)N[C@@H](CCCNC(=N)N)C(=O)N[C@@H](C(C)C)C(=O)N3CCC[C@@H]3C(=O)N2C1 [Example 256] (cyclo(KKRRWKYRV[dP][X1]LRL))						Minimal inhibitory concentration (MIC) Candida albicans (Candida albicans [7]): 25 µg/mL (≈ 12.5 µM); Minimal inhibitory concentration (MIC) Escherichia coli ATCC 25922 [8]: 6.2 µg/mL (≈ 3.09 µM); Minimal inhibitory concentration (MIC) Pseudomonas putida ATCC 27853 [9]: 6.2 µg/mL (≈ 3.09 µM); Minimal inhibitory concentration (MIC) Staphylococcus aureus ATCC 25923 [10]: 25 µg/mL (≈ 12.5 µM); Minimal inhibitory concentration (MIC) Staphylococcus aureus ATCC 29213 [11]: 25 µg/mL (≈ 12.5 µM)
12.5 (≈ 6.7 µM)	18.8 (≈ 10.1 µM)	25 (≈ 13.4 µM)	12.5 (≈ 6.7 µM)	CC(C)C[C@@H]1NC(=O)[C@H](CCCNC(=N)N)NC(=O)[C@H](CC(C)C)NC(=O)[C@@H]2CCCN2C(=O)[C@H]2CCCN2C(=O)[C@H](C(C)C)NC(=O)[C@H](CCCNC(=N)N)NC(=O)[C@H](Cc2ccc(O)cc2)NC(=O)[C@H](CCCN)NC(=O)[C@H](Cc2c[nH]c3ccccc23)NC(=O)[C@H](CCCNC(=N)N)NC(=O)[C@H](CCCNC(=N)N)NC(=O)[C@H](CCCCN)NC(=O)[C@H](CCCCN)NC1=O [Example 217] (cyclo(LRLKKRRW[Orn]YRV[dP]P))						
50 (≈ 22.4 µM)	12.5 (≈ 5.59 µM)	12.5 (≈ 5.59 µM)	12.5 (≈ 5.59 µM)	CC(C)C[C@@H]1NC(=O)[C@H](Cc2ccc(O)cc2)NC(=O)[C@H](CCCNC(=N)N)NC(=O)[C@H](CCCNC(=N)N)NC(=O)[C@H](CCCNC(=N)N)NC(=O)[C@H](Cc2ccc(O)cc2)NC(=O)[C@H](CC(C)C)NC(=O)[C@H](CC(C)C)NC(=O)[C@H](Cc2ccc(O)cc2)NC(=O)[C@H](CCCNC(=N)N)NC(=O)[C@@H]2CCCN2C(=O)[C@H]2CCCN2C(=O)[C@H](CCCNC(=N)N)NC(=O)[C@H](CCCNC(=N)N)NC(=O)[C@H](Cc2ccc(O)cc2)NC(=O)[C@H](CC(C)C)NC1=O [Example 71] (cyclo(RYLLYRRRYLLYRR[dP]P))						
